Read-outs that look alike come from different tables or passages of the source.
Key:
[1] = system: CYP3A; experiment: Substrate of / metabolism by CYP3A; assay type: in vitro ADME
[2] = Drug interactions: effects of ORIAHNN on other drugs; settings: co-administration of ORIAHNN
[3] = Drug interactions: effects of ORILISSA on other drugs; settings: co-administration of ORILISSA
[4] = Drug interaction studies: change in pharmacokinetics of co-administered drug in the presence of elagolix; assay type: in vivo, human; settings: for changes in exposures when co-administered with elagolix, in words: elagolix 300 mg twice daily
Experimental: Drug interaction studies were performed with elagolix and other drugs likely to be co-administered and with drugs commonly used as probes for pharmacokinetic interactions. Tables 8 and 9 summarize the pharmacokinetic effects when elagolix was co-administered with these drugs.

[5] = Drug interaction studies: change in pharmacokinetics of elagolix in the presence of co-administered drugs; assay type: in vivo, human; settings: for changes in elagolix exposures when co-administered, in words: elagolix 300 mg twice daily, rosuvastatin 20 mg once daily, sertraline 25 mg once daily or fluconazole 200 mg single dose
[6] = Phase 1 open-label study: coadministration of combined oral contraceptive (EE+LNG) with elagolix sodium, pharmacokinetics, safety and tolerability; assay type: in vivo, human; settings: for AUCinf ratio, co-administered in the presence of elagolix vs alone / Cmax ratio, co-administered in the presence of elagolix vs alone: elagolix 200 mg twice daily
Experimental: Objective: To evaluate the effect of elagolix on the pharmacokinetics, safety, and tolerability of a single dose of a combined oral contraceptive (COC) containing EE and LNG in healthy premenopausal female subjects. […] [table] […] Diagnosis and Main Criteria for Inclusion: Subjects were premenopausal females, and age was between 18 and 49 years, inclusive. Test Product, Dose/Strength/Concentration, and Mode of Administration: […] EE/LNG 0.02 mg/0.1 mg tablet; All study drugs were administered orally. Duration of Treatment: […] EE/LNG: 0.02 mg/0.1 mg on two separate occasions. Criteria for Evaluation: Pharmacokinetic: Cmax, Tmax, t1/2 and AUC. Safety: Vital signs, physical examinations, laboratory tests, and adverse events. […] The tabulation of the number of subjects with treatment-emergent adverse events also was provided with further breakdowns by severity rating and relationship to study drug.

[7] = digoxin 0.5 mg single dose, elagolix 200 mg twice daily x 10 days, N 11
[8] = rosuvastatin 20 mg once daily, elagolix 300 mg twice daily x 7 days, N 10
[9] = COC 20 mcg EE/0.1 mg levonorgestrel
[10] = COC 20 mcg EE/0.1 mg levonorgestrel, listed as EE
[11] = Study Day 1: EE/LNG 0.02 mg/0.1 mg
[12] = ethinyl estradiol 20 mcg/levonorgestrel 0.1 mg single dose, elagolix 200 mg twice daily x 15 days, N 20
[13] = following elagolix 200 mg BID for 14 days
[14] = ethinyl estradiol 35 mcg and triphasic norgestimate 0.18/0.215/0.25 mg once daily, elagolix 150 mg once daily, N 21

SMILES: C[C@]12CC[C@@H]3c4ccc(O)cc4CC[C@H]3[C@@H]1CC[C@@H]2O [estradiol]
- metabolism by CYP3A [1]: metabolized partially by CYP3A

SMILES: C[C@H]1O[C@@H](O[C@H]2[C@@H](O)C[C@H](O[C@H]3[C@@H](O)C[C@H](O[C@H]4CC[C@@]5(C)[C@H](CC[C@@H]6[C@@H]5C[C@@H](O)[C@]5(C)[C@@H](C7=CC(=O)OC7)CC[C@]65O)C4)O[C@@H]3C)O[C@@H]2C)C[C@H](O)[C@@H]1O [digoxin]
- Effect on Plasma Exposure of Concomitant Drug (direction of change in AUC) [2]: ↑ digoxin
- Effect on Plasma Exposure of Concomitant Drug (direction of change in AUC) [3]: ↑ digoxin
- Ratio (90% CI) AUC, co-administration with elagolix vs medication alone [4, 7]: 1.26
- Ratio (90% CI) Cmax, co-administration with elagolix vs medication alone [4, 7]: 1.71

SMILES: OC(Cn1cncn1)(Cn1cncn1)c1ccc(F)cc1F [fluconazole]
- changes in elagolix exposures when co-administered, in words [5]: No clinically significant changes
- changes in exposures when co-administered with elagolix, in words [4]: No clinically significant changes

SMILES: CO[C@H]1/C=C/O[C@@]2(C)Oc3c(C)c(O)c4c(O)c(c(/C=N/N5CCN(C)CC5)c(O)c4c3C2=O)NC(=O)/C(C)=C\C=C\[C@H](C)[C@H](O)[C@@H](C)[C@@H](O)[C@@H](C)[C@H](OC(C)=O)[C@@H]1C [Rifampin]
- effect of concomitant use on plasma concentrations of elagolix, in words ([5]; concomitant use of rifampin): increased

SMILES: C#C[C@]1(OC(C)=O)CC[C@H]2[C@@H]3CCC4=CC(=O)CC[C@@H]4[C@H]3CC[C@@]21C [norethindrone acetate]
- metabolism by CYP3A [1]: metabolized partially by CYP3A

SMILES: CN[C@H]1CC[C@@H](c2ccc(Cl)c(Cl)c2)c2ccccc21 [sertraline]
- changes in elagolix exposures when co-administered, in words [5]: No clinically significant changes
- changes in exposures when co-administered with elagolix, in words [4]: No clinically significant changes

SMILES: CC(C)c1nc(N(C)S(C)(=O)=O)nc(-c2ccc(F)cc2)c1/C=C/[C@@H](O)C[C@@H](O)CC(=O)O [rosuvastatin]
- changes in elagolix exposures when co-administered, in words [5]: No clinically significant changes
- Effect on Plasma Exposure of Concomitant Drug (direction of change in AUC) [2]: ↓ rosuvastatin
- Effect on Plasma Exposure of Concomitant Drug (direction of change in AUC) [3]: ↓ rosuvastatin
- Ratio (90% CI) AUC, co-administration with elagolix vs medication alone [4, 8]: 0.60
- Ratio (90% CI) Cmax, co-administration with elagolix vs medication alone [4, 8]: 0.99

SMILES: C#C[C@]1(O)CC[C@H]2[C@@H]3CCc4cc(O)ccc4[C@H]3CC[C@@]21C [ethinyl estradiol, 17α-Ethynylestra-1,3,5(10)-triene-3,17β-diol]
- AUCinf ratio, co-administered in the presence of elagolix vs alone [6, 9]: 2.18
- Cmax ratio, co-administered in the presence of elagolix vs alone [6, 9]: 1.36
- increase in plasma EE concentration compared to COC alone ([6]; COC 20 mcg EE/0.1 mg levonorgestrel, elagolix 200 mg twice daily for 14 days): 2.2 fold
- AUCinf ratio, co-administered in the presence of elagolix vs alone [6, 10]: about 2.18
- Cmax ratio, co-administered in the presence of elagolix vs alone [6, 10]: about 1.36
- AUCinf, Central Value Reference [6, 11]: 0.494 ng·h/mL
- CCmax, Central Value Reference [6, 11]: 49.0 pg/mL
- CCmax, Central Value Test ([6]; Study Day 18: EE/LNG 0.02 mg/0.1 mg + elagolix 200 mg): 66.4 pg/mL
- Ratio (90% CI) AUC, co-administration with elagolix vs medication alone [6, 12]: 2.18
- Ratio (90% CI) Cmax, co-administration with elagolix vs medication alone [6, 12]: 1.36
- AUC(0-t) ([6]; female, human, in vivo, oral, Study Day 1: EE/LNG 0.02 mg/0.1 mg, read-out: AUCt, Central Value Reference): 0.437 ng·h/mL
- AUC(0-inf) ([6]; female, human, in vivo, oral, Study Day 18: EE/LNG 0.02 mg/0.1 mg + elagolix 200 mg, read-out: AUCinf, Central Value Test): 1.08 ng·h/mL
- AUC(0-t) ([6]; female, human, in vivo, oral, Study Day 18: EE/LNG 0.02 mg/0.1 mg + elagolix 200 mg, read-out: AUCt, Central Value Test): 0.941 ng·h/mL
- increase in AUCinf [6, 13]: 118%
- increase in Cmax [6, 13]: 36%
- Effect on Plasma Exposure of Concomitant Drug (direction of change in AUC) [2]: ↑ethinyl
- Effect on Plasma Exposure of Concomitant Drug (direction of change in AUC) [3]: ↑ethinyl
- Ratio (90% CI) AUC, co-administration with elagolix vs medication alone [4, 14]: 1.30
- Ratio (90% CI) Cmax, co-administration with elagolix vs medication alone [4, 14]: 1.15
